In US7772241B2, “Variolin derivatives and their use as antitumor agents” (Pharma Mar S.A., priority 2001, dated 2010):

Columns and labels:
[1] = tested on: PANC-1; assay: Inhibition of cells growth by colorimetric (SRB) assay, PANC-1; details: SRB assay, 48 hours exposure
Outline: (§1)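 Human tumour cells in RPMI 1640 with 10% FBS were seeded at 5×10^3 cells/well, allowed to attach for 18 h, then exposed to samples at 10 to 10^−8 μg/ml for 48 h. Growth was measured by SRB staining after TCA fixation, with absorbance read at 490 nm in triplicate wells.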

[2] = tested on: A-549; assay: Inhibition of cells growth by colorimetric (SRB) assay, A-549; details: SRB assay, 48 hours exposure
Outline: as §1

[3] = tested on: DU-145; assay: Inhibition of cells growth by colorimetric (SRB) assay, DU-145; details: SRB assay, 48 hours exposure
Outline: as §1

[4] = tested on: SK-MEL-28; assay: Inhibition of cells growth by colorimetric (SRB) assay, SK-MEL-28; details: SRB assay, 48 hours exposure
Outline: as §1

[5] = tested on: LoVo-Dox; assay: Inhibition of cells growth by colorimetric (SRB) assay, LoVo-Dox; details: SRB assay, 48 hours exposure
Outline: as §1

[6] = tested on: LoVo; assay: Inhibition of cells growth by colorimetric (SRB) assay, LoVo; details: SRB assay, 48 hours exposure
Outline: as §1

[7] = tested on: HT-29; assay: Inhibition of cells growth by colorimetric (SRB) assay, HT-29; details: SRB assay, 48 hours exposure
Outline: as §1

[8] = tested on: SK-OV-3; assay: Inhibition of cells growth by colorimetric (SRB) assay, SK-OV-3; details: SRB assay, 48 hours exposure
Outline: as §1

[9] = tested on: K-562; assay: Inhibition of cells growth by colorimetric (SRB) assay, K-562; details: SRB assay, 48 hours exposure
Outline: as §1

[10] = tested on: LNCaP; assay: Inhibition of cells growth by colorimetric (SRB) assay, LNCaP; details: SRB assay, 48 hours exposure
Outline: as §1

[11] = tested on: IGROV-1; assay: Inhibition of cells growth by colorimetric (SRB) assay, IGROV-1; details: SRB assay, 48 hours exposure
Outline: as §1

[12] = tested on: SK-BR-3; assay: Inhibition of cells growth by colorimetric (SRB) assay, SK-BR-3; details: SRB assay, 48 hours exposure
Outline: as §1

[13] = tested on: IGROV-ET; assay: Inhibition of cells growth by colorimetric (SRB) assay, IGROV-ET; details: SRB assay, 48 hours exposure
Outline: as §1

[14] = Inhibition of cells growth by colorimetric (SRB) assay, HMEC1; details: human, HMEC1 cells, LC50 H-MEC-1, SRB assay, 48 hours exposure
[15] = tested on: HMEC1; assay: as above

Cl.Nc1nccc2c(-c3ccncn3)c3c(O)ccnc3n12 [Compound 101]
TGI PANC-1 [1]: 4.88E−06 | GI50 ([1]; read-out: GI50 PANC-1): 0.149 µM | CC50 ([1]; read-out: LC50 PANC-1): ≥ 33.9 µM | TGI A-549 [2]: 1.09E−05 | GI50 ([2]; read-out: GI50 A-549): 2.39 µM | CC50 ([2]; read-out: LC50 A-549): ≥ 33.9 µM | TGI DU-145 [3]: 1.80E−06 | GI50 ([3]; read-out: GI50 DU-145): 0.118 µM | CC50 ([3]; read-out: LC50 DU-145): ≥ 30.3 µM | TGI MEL-28 [4]: 1.07E−05 | GI50 ([4]; read-out: GI50 MEL-28): 5.22 µM | CC50 ([4]; read-out: LC50 MEL-28): 21.9 µM | TGI LOVO-DOX [5]: 1.59E−05 | GI50 ([5]; read-out: GI50 LOVO-DOX): 2.35 µM | CC50 ([5]; read-out: LC50 LOVO-DOX): ≥ 33.9 µM | TGI LOVO [6]: 1.41E−05 | GI50 ([6]; read-out: GI50 LOVO): 3.52 µM | CC50 ([6]; read-out: LC50 LOVO): ≥ 33.9 µM | TGI HT-29 [7]: 2.35E−05 | GI50 ([7]; read-out: GI50 HT-29): 8.87 µM | CC50 ([7]; read-out: LC50 HT-29): ≥ 33.9 µM | TGI SKOV-3 [8]: 1.41E−05 | GI50 ([8]; read-out: GI50 SKOV-3): 4.44 µM | CC50 ([8]; read-out: LC50 SKOV-3): ≥ 33.9 µM | TGI K-562 [9]: 1.79E−05 | GI50 ([9]; read-out: GI50 K-562): 5.55 µM | CC50 ([9]; read-out: LC50 K-562): ≥ 33.9 µM | TGI LN-caP [10]: 1.32E−07 | GI50 ([10]; read-out: GI50 LN-caP): 0.0224 µM | CC50 ([10]; read-out: LC50 LN-caP): 4.74 µM | TGI IGROV [11]: 1.06E−05 | GI50 ([11]; read-out: GI50 IGROV): 3.79 µM | CC50 ([11]; read-out: LC50 IGROV): 29.6 µM | TGI SK-BR-3 [12]: 8.77E−07 | GI50 ([12]; read-out: GI50 SK-BR-3): 0.128 µM | CC50 ([12]; read-out: LC50 SK-BR-3): 10.2 µM | TGI IGROV-ET [13]: 2.08E−05 | GI50 ([13]; read-out: GI50 IGROV-ET): 6.6 µM | CC50 ([13]; read-out: LC50 IGROV-ET): ≥ 33.9 µM | CC50 at 48 h [14]: 0.0444 µM | GI50 ([15]; Homo sapiens, HMEC-1, 48 h, read-out: GI50 H-MEC-1, SRB assay, 48 hours exposure): 0.00677 µM | TGI H-MEC-1 ([15]; SRB assay, 48 hours exposure, in M (unit assumed)): 1.57E−08
